The values below come from patent publication US12427192B2, “Water soluble adjuvant and composition containing same” (Sumitomo Pharma Co., Ltd., priority 2019, dated 2025).

Data set [1] concerns HLA-A*24:02 transgenic mouse. The data set is described as follows: Test 8: in vivo adjuvant activity, vaccine e (Peptide SEQ ID No. 18), IFNγ ELISPOT. The note with it: added to vaccine e; 0.4 nmol per body, twice; FIG. 5. As for the experimental part: Evaluation of In Vivo Adjuvant Activity in HLA-A*24:02 Transgenic Mouse
The in vivo adjuvant activity of the compound of Example 1 was evaluated in the following procedure. To a vaccine prepared by mixing Peptide SEQ ID No. 18 prepared in Reference example 20 with Montanide ISA 51 VG (hereinafter, referred to as “vaccine e”) was added the compound prepared in Example 1 to prepare a vaccine. The vaccine was administered to a HLA-A*24:02 transgenic mouse, and the adjuvant activity of the vaccine was evaluated by the method of testing antigen-specific CTL induction. The TYAGCLSQIF in Peptide SEQ ID No. 18 corresponds to an antigen peptide derived from an HLA-A*24:02-restricted Or7c1 protein.
The character for inducing CTLs specific to the antigen peptide (SEQ ID No. 18) by vaccine e was evaluated by measuring whether IFNγ can be produced upon stimulation of splenocytes from the mouse with the peptide. In addition, the character for exerting in vivo adjuvant activity by the compound in Example 1 was evaluated by comparing the number of CTLs induced by vaccine e and the number of CTLs induced by the vaccine prepared by adding the compound prepared in Example 1 to vaccine e, and checking presence or absence of the increase on the number.
Specifically, Peptide of SEQ ID No. 18 was dissolved in DMSO, and then diluted with water for injection to concentrations of 3 mg/mL. […]

Data set [2] concerns HLA-A*02:01/HLA-DRB1*01:01 transgenic mouse. The data set is described as follows: Test 19: in vivo adjuvant activity (CTL and helper T-cell induction), cocktail vaccine n, IFNγ ELISPOT. Conditions: added to cocktail vaccine n, 0.04 nmol or 0.4 nmol per body, twice. The procedure: Evaluation of In Vivo Adjuvant Activity in HLA-A*02:01/HLA-DRB1*01:01 Transgenic Mouse
The in vivo adjuvant activity of the compound of Example 1 was evaluated in the following procedure. To a cocktail vaccine comprising Peptide SEQ ID No. 1 prepared in Reference example 1 and Peptide SEQ ID No. 17 prepared in Reference example 20 with a preliminarily-emulsified composition (hereinafter, referred to as “cocktail vaccine n”) was added the compound prepared in Example 1 to prepare each vaccine. The vaccine was administered to a HLA-A*02:01/HLA-DRB1*01:01 transgenic mouse (C57BL/6CrHLA-A2.1DR1), and the adjuvant activity of each vaccine was evaluated by the method of testing antigen-specific CTL and antigen-specific helper T-cell induction. Peptide SEQ ID No. 17 is a helper peptide derived from WT1 protein.
Specifically, Peptide SEQ ID No. 1 and Peptide SEQ ID No. 17 were dissolved in DMSO, and then diluted with water for injection to concentrations of Peptide SEQ ID No. 1 of 2 mg/mL and Peptide SEQ ID No. 17 of 4 mg/mL. The prepared peptide dilution was mixed with an equal volume of the preliminary emulsified composition prepared like Test 4 to give an emulsified product, cocktail vaccine n. […] Then, after removal of the supernatant from the wells, stained spots on the ELISPOT plate were counted.

The nature of data set [3]: Spleen weight in the mice tested in Tests 11-18. It counts as in vivo, mouse.

Take `CCCCCNc1nc(N)nc(C)c1Cc1ccc(CN(C)CCOCCOCCOCCOCCO)cc1OC` [Example 1, 1-(4-{[2-amino-4-methyl-6-(pentylamino)pyrimidin-5-yl]methyl}-3-methoxyphenyl)-2-methyl-5,8,11,14-tetraoxa-2-azahexadecan-16-ol·trifluoroacetate]: the “CTL counts responsive to Peptide of SEQ ID No. 18 compared with adding no compound” value in data set [1] is “more”. Besides, the “CTL counts responsive to Peptide SEQ ID No. 1 compared with adding no compound” value in data set [2] (FIG. 23) is listed as “more”. Moreover, the “helper T-cell counts responsive to Peptide SEQ ID No. 17 compared with adding no compound” value in data set [2] (FIG. 24) was “more”. The spleen weight result in data set [3] (mice tested in Tests 11-13 (emulsified compositions), FIG. 26) is listed as “does not induce a pronounced increase of spleen weight”; in data set [3] (mice tested in Tests 14 and 15 (oily suspension, hydrogel), FIG. 27) it was “does not induce a pronounced increase of spleen weight”; in data set [3] (mice tested in Tests 16-18 (liposome formulations), FIG. 28), “does not induce a pronounced increase of spleen weight”.
